Experimental data from paper PMC6943582 (2019).

Columns and labels:
[1] = system: NEO2A (RNA, aptamer) CACUGCAGUCCGAAAAGGGCCAGUG; test: ITC; conditions: 13.5 mM NaCl, 150 mM KCl, 0.12 mM MgCl2, 0.1 mM MgSO4, 120 nM CaCl2, Buffer A: 20 mM HEPES, pH 7.3, 25 °C
[2] = system: NEO2AΔA (RNA, aptamer) CACUGCAGUCCGAAAGGGCCAGUG; test: ITC; conditions: 13.5 mM NaCl, 150 mM KCl, 0.12 mM MgCl2, 0.1 mM MgSO4, 120 nM CaCl2; Buffer A: 20 mM HEPES, phosphate, pH 7.3, 25 °C
[3] = system: 2AP13NEO2A (RNA, aptamer, 2-aminopurine at 13) CACUGCAGUCCGAAAAGGGCCAGUG; test: 2-aminopurine fluorescence; conditions: buffer A or F; 10 μM ligand, 1 μM RNA; fluorescence increase
[4] = system: 2AP14NEO2A (RNA, aptamer, 2-aminopurine at 14) CACUGCAGUCCGAAAAGGGCCAGUG; test: 2-aminopurine fluorescence; conditions: buffer A or F; 10 μM ligand, 1 μM RNA; fluorescence decrease
[5] = system: 2AP16NEO2A (RNA, aptamer, 2-aminopurine at 16) CACUGCAGUCCGAAAAGGGCCAGUG; test: ITC; conditions: 13.5 mM NaCl, 150 mM KCl, 0.12 mM MgCl2, 0.1 mM MgSO4, 120 nM CaCl2; Buffer A, pH 7.3, 25 °C; affinity 40% of unsubstituted NEO2A
[6] = system: 2AP7NEO2A (RNA, aptamer, 2-aminopurine at 7) CACUGCAGUCCGAAAAGGGCCAGUG; test: 2-aminopurine fluorescence; conditions: buffer A or F; 10 μM ligand, 1 μM RNA; fluorescence increase

Row | Compound | Kd ([1]; phosphate) [µM] | Kd [2] [µM] | other results
1 | CCN[C@@H]1C[C@H](N)[C@@H](O[C@H]2OC(CN)=CC[C@H]2N)[C@H](O)[C@H]1O[C@H]1OC[C@](C)(O)[C@H](NC)[C@H]1O | > 100 |  | 
2 | CN[C@@H]1[C@@H](O)[C@@H](O[C@@H]2[C@@H](O)[C@H](O[C@H]3OC(CN)=CC[C@H]3N)[C@@H](N)C[C@H]2N)OC[C@]1(C)O | 4.9 ± 1.2 | 4.9 ± 1.0 | 
3 | CN[C@@H]1[C@@H](O)[C@@H](O[C@@H]2[C@@H](O)[C@H](O[C@H]3O[C@H]([C@@H](C)O)[C@@H](O)[C@H](O)[C@H]3N)[C@@H](N)C[C@H]2N)OC[C@]1(C)O | > 100 |  | 
4 | NCC[C@H](O)C(=O)N[C@@H]1C[C@H](N)[C@@H](O[C@H]2O[C@H](CN)[C@@H](O)[C@H](O)[C@H]2O)[C@H](O)[C@H]1O[C@H]1O[C@H](CO)[C@@H](O)[C@H](N)[C@H]1O | > 100 |  | 
5 | NC[C@@H]1O[C@H](O[C@H]2[C@@H](O)[C@H](O[C@@H]3[C@@H](O)[C@H](N)C[C@H](N)[C@H]3O[C@H]3O[C@H](CN)[C@@H](O)[C@H](O)[C@H]3N)O[C@@H]2CO)[C@H](N)[C@@H](O)[C@@H]1O | 0.25 ± 0.050 | 0.17 ± 0.031 | binding [3]: yes; binding [4]: yes; binding [5]: yes; binding [6]: yes

Now from value to molecule, other results behind:

Row | Kd ([1]; phosphate) [µM] | Kd [2] [µM] | Compound | other results
6 | 1.6 ± 0.26 |  | NC[C@@H]1O[C@H](O[C@H]2[C@@H](O)[C@H](O[C@@H]3[C@@H](O)[C@H](N)C[C@H](N)[C@H]3O[C@H]3O[C@H](CO)[C@@H](O)[C@H](O)[C@H]3N)O[C@@H]2CO)[C@H](N)[C@@H](O)[C@@H]1O | binding [2]: no
7 | 0.40 ± 0.051 | 6.3 ± 0.84 | NC[C@H]1O[C@H](O[C@H]2[C@H](O)[C@@H](O[C@H]3O[C@H](CO)[C@@H](O)[C@H](N)[C@H]3O)[C@H](N)C[C@@H]2N)[C@H](N)C[C@@H]1O | 
8 | 0.25 ± 0.073 |  | NC[C@H]1O[C@H](O[C@H]2[C@H](O)[C@@H](O[C@H]3O[C@H](CO)[C@@H](O)[C@H](N)[C@H]3O)[C@H](N)C[C@@H]2N)[C@H](N)[C@@H](O)[C@@H]1O | 
9 | 26 ± 3.0 |  | NC[C@H]1O[C@H](O[C@H]2[C@H](O)[C@@H](O[C@H]3O[C@H](CO)[C@@H](O)[C@H](N)[C@H]3O)[C@H](N)C[C@@H]2N)[C@H](O)[C@@H](O)[C@@H]1O | 
10 |  | 2.3 ± 0.0015 | NC[C@H]1O[C@H](O[C@H]2[C@H](O[C@@H]3O[C@H](CO)[C@@H](O)[C@H]3O)[C@@H](O)[C@H](N)C[C@@H]2N)[C@H](N)[C@@H](O)[C@@H]1O | Kd ([1]; Table S4 prints 0.4 ± 0.075): 0.28 ± 0.066 µM
